According to patent US20140155445A1, “Compounds and Methods for Treating Cancer and Diseases of the Central Nervous System” (Osta Biotechnologies Inc., priority 2007, published 2014):
Structures can show the parent of a compound that is named as a salt. Where two headings read alike, the source gives them in different places.

Legend:
HO-2 (rat brain) = molecular target: T1, HO-2 (rat brain) (Rattus norvegicus, UniProt P23711); experiment: HO enzymatic activity in rat brain microsomal fraction (CO formed from methemalbumin, gas chromatography); type: biochemical
T1 construct: brain microsomes were used as a source of HO-2; from tissue; host or cells: brain microsomal fraction of adult male Sprague-Dawley rats
T1 sequence (P23711 1-315): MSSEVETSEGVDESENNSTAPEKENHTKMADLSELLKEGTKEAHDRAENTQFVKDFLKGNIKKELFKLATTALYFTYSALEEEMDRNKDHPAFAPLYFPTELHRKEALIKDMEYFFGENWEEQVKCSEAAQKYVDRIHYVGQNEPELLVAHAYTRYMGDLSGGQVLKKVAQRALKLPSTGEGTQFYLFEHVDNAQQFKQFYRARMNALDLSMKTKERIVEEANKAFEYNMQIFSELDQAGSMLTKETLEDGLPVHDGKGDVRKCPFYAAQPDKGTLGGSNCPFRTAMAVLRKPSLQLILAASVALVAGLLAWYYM

HO-1 (rat spleen) = molecular target: T2, HO-1 (rat spleen) (Rattus norvegicus, UniProt P06762); experiment: HO enzymatic activity in rat spleen microsomal fraction (CO formed from methemalbumin, gas chromatography); type: biochemical
T2 construct: Spleen microsomes were used as a source of HO-1; from tissue; host or cells: spleen microsomal fraction of adult male Sprague-Dawley rats
T2 sequence (P06762 1-289): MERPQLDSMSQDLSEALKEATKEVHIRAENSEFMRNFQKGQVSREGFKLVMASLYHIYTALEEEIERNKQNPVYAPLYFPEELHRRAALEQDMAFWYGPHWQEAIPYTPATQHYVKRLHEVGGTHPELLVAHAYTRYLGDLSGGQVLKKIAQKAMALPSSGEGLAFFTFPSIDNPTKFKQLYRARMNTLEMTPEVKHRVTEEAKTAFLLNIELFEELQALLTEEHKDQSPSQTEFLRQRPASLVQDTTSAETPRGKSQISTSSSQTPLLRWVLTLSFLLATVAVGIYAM

[1] = rat brain microsomes, average ± standard deviation of replicate experiments, read-out: IC50 HO-2 (rat brain)/μM
[2] = rat spleen microsomes, average ± standard deviation of replicate experiments, read-out: IC50 HO-1 (rat spleen)/μM

Structure (SMILES) | IC50 (HO-2 (rat brain); [1]) | IC50 (HO-1 (rat spleen); [2]) | also measured
c1ccc(SCCn2ccnc2)cc1 [1-(2-phenylsulfanyl-ethyl)-1H-imidazole hydrochloride] | > 100 µM | 6 ± 0.1 µM | 
O=C(Cn1cncn1)c1ccc(Cl)c(Cl)c1 [1-(3,4-Dichloro-phenyl)-2-[1,2,4]triazol-1-yl-ethanone hydrochloride] | > 100 µM | 1.3 ± 0.5 µM | 
O=C(CCc1ccccc1)Cn1nc(Br)nc1Br [1-(3,5-Dibromo-[1,2,4]triazol-1-yl)-4-phenyl-butan-2-one] | > 100 µM | > 100 µM | 
O=C(CCc1ccccc1)Cn1nc(-c2ccccc2)nc1-c1ccccc1 [1-(3,5-Diphenyl-[1,2,4]triazol-1-yl)-4-phenyl-butan-2-one] | > 100 µM | > 100 µM | 
O=C(Cn1ccnc1)c1cccc(Br)c1 [1-(3-Bromo-phenyl)-2-(1H-imidazol-1-yl)-ethanone hydrochloride] | 35 ± 3 µM | 2.1 ± 0.1 µM | 
CSc1ncn(CC(=O)CCc2ccccc2)n1 [1-(3-Methylsulfanyl-[1,2,4]triazol-1-yl)-4-phenyl-butan-2-one] | > 100 µM | > 100 µM | 
c1ccc(CCCn2ccnc2)cc1 [1-(3-Phenyl-propyl)-1H-imidazole hydrochloride] | > 100 µM | 14 ± 4 µM | 
[O-][S+](CCCn1ccnc1)c1ccccc1 (centres unmarked) [1-(3-benzenesulfinyl-propyl)-1H-imidazole hydrochloride] | 22 ± 3 µM | 3.7 ± 0.4 µM | 
c1ccc(OCCCn2ccnc2)cc1 [1-(3-phenoxy-propyl)-1H-imidazole hydrochloride] | 206 ± 96 µM | 42 ± 13 µM | 
c1ccc(SCCCn2ccnc2)cc1 [1-(3-phenylsulfanyl-propyl)-1H-imidazole hydrochloride] | 16 ± 2 µM | 2.4 ± 0.2 µM | 
O=C(CCc1ccccc1)Cn1cnc(Cl)c1Cl [1-(4,5-Dichloro-imidazol-1-yl)-4-phenyl-butan-2-one hydrochloride] | > 100 µM | > 100 µM | 
O=C(CCc1ccccc1)Cn1cnc(-c2ccccc2)c1-c1ccccc1 [1-(4,5-Diphenyl-imidazol-1-yl)-4-phenyl-butan-2-one hydrochloride] | > 100 µM | 40 ± 2 µM | 
c1cn(Cc2ccc(Cn3ccnc3)cc2)cn1 [1-(4-(1H-Imidazol-1-ylmethyl)benzyl)-1H-imidazole dihydrochloride] | > 100 µM | 86 ± 30 µM | 
O=C(Cn1ccnc1)c1ccc(OCc2ccccc2)cc1 [1-(4-Benzyloxy-phenyl)-2-(1H-imidazol-1-yl)-ethanone] | > 100 µM | 11 ± 3 µM | 
O=C(CCc1ccccc1)Cn1cnc(Br)c1 [1-(4-Bromo-imidazol-1-yl)-4-phenyl-butan-2-one] | > 100 µM | > 100 µM | 
O=C(Cn1cncn1)c1ccc(Br)cc1 [1-(4-Bromo-phenyl)-2-[1,2,4]triazol-1-yl-ethanone] | 50 ± 24 µM | 2.7 ± 0.5 µM | 
O=C(Cn1cncn1)c1ccc([N+](=O)[O-])cc1 [1-(4-Nitro-phenyl)-2-[1,2,4]triazol-1-yl-ethanone hydrochloride] | > 100 µM | 19.2 ± 0.5 µM | 
[O-][S+](CCCCn1ccnc1)c1ccccc1 (centres unmarked) [1-(4-benzenesulfinyl-butyl)-1H-imidazole hydrochloride] | 31 ± 5 µM | 18.44 ± 0.04 µM | 
O=C(Cn1ccnc1)c1ccc(Cc2ccccc2)cc1 [1-(4-benzyl-phenyl)-2-imidazol-1-yl-ethanone hydrochloride] | 2.3 ± 0.2 µM | 1.99 ± 0.05 µM | 
Clc1ccc(/C(Cn2ccnc2)=N/OCc2ccc(Br)cc2)cc1 [1-(4-chloro-phenyl)-2-imidazol-1-yl-ethanone O-(4-bromo-benzyl)-oxime hydrochloride] | 51 ± 26 µM | 8.3 ± 0.9 µM | 
O/N=C(\Cn1ccnc1)c1ccc(Cl)cc1 [1-(4-chloro-phenyl)-2-imidazol-1-yl-ethanone oxime] | > 100 µM | 46 ± 8 µM | 
O=C(Cn1ccnc1)c1ccc(F)cc1 [1-(4-fluoro-phenyl)-2-imidazol-1-yl-ethanone hydrochloride] | 35 ± 3 µM | 2.1 ± 0.1 µM | 
c1ccc(OCCCCn2ccnc2)cc1 [1-(4-phenoxy-butyl)-1H-imidazole hydrochloride] | 4.6 ± 0.5 µM | 4 ± 1 µM | 
c1ccc(CCCCn2ccnc2)cc1 [1-(4-phenyl-butyl)-1H-imidazole hydrochloride] | > 100 µM | 3.5 ± 0.9 µM | 
c1ccc(SCCCCn2ccnc2)cc1 [1-(4-phenylsulfanyl-butyl)-1H-imidazole hydrochloride] | 5 ± 3 µM | 1.2 ± 0.2 µM | 

Structure (SMILES) | IC50 (HO-2 (rat brain); [1]) | IC50 (HO-1 (rat spleen); [2]) | also measured
O=C(Cn1ccnc1)c1ccc(-c2ccc(Br)cc2)cc1 [1-(4′-bromo-biphenyl-4-yl)-2-imidazol-1-yl-ethanone] | 0.43 ± 0.07 µM | 1.5 ± 0.5 µM | 
O=C(Cn1cncn1)c1ccc2c(c1)CCCC2 [1-(5,6,7,8-tetrahydro-naphthalen-2-yl)-2-[1,2,4]triazol-1-yl-ethanone] | 4 ± 1 µM | 0.24 ± 0.04 µM | 
O=C(CCc1ccccc1)Cn1cncc1Br [1-(5-Bromo-1H-imidazol-1-yl)-4-phenyl-2-butanone] | > 100 µM | 22 ± 2 µM | 
CS(=O)(=O)c1nnnn1CC(=O)CCc1ccccc1 [1-(5-Methanesulfonyl-tetrazol-1-yl)-4-phenyl-butan-2-one] | > 100 µM | > 100 µM | 
CS(=O)(=O)c1nnn(CC(=O)CCc2ccccc2)n1 [1-(5-Methanesulfonyl-tetrazol-2-yl)-4-phenyl-butan-2-one] | > 100 µM | > 100 µM | 
CSc1ncnn1CC(=O)CCc1ccccc1 [1-(5-Methylsulfanyl-[1,2,4]triazol-1-yl)-4-phenyl-butan-2-one hydrochloride] | > 100 µM | > 100 µM | 
CSc1nnnn1CC(=O)CCc1ccccc1 [1-(5-Methylsulfanyl-tetrazol-1-yl)-4-phenyl-butan-2-one] | > 100 µM | > 100 µM | 
CSc1nnn(CC(=O)CCc2ccccc2)n1 [1-(5-Methylsulfanyl-tetrazol-2-yl)-4-phenyl-butan-2-one] | > 100 µM | > 100 µM | 
c1ccc(CCCCCn2ccnc2)cc1 [1-(5-phenyl-pentyl)-1H-imidazole hydrochloride] | 20 ± 15 µM | 2.8 ± 0.5 µM | 
Cl.c1cn(CC2OCCO2)cn1 [1-((1,3-Dioxolan-2-yl)methyl)-1H-imidazole hydrochloride] |  |  | IC50 HO-2 (rat brain)/μM (HO-2 (rat brain); rat brain microsomes, average ± standard deviation of replicate experiments): Inactive; IC50 HO-1 (rat spleen)/μM (HO-1 (rat spleen); rat spleen microsomes, average ± standard deviation of replicate experiments): Inactive
O=C(CCc1ccccc1)Cn1nc2ccccc2n1 [1-Benzotriazol-2-yl-4-phenyl-butan-2-one] | > 100 µM | > 100 µM | 
c1ccc(Cn2ccnc2)cc1 [1-Benzyl-1H-imidazole hydrochloride] |  |  | IC50 (HO-2 (rat brain)): > 100 µM; IC50 (HO-1 (rat spleen)): 44 ± 9 µM
O=C(Cn1cncn1)c1ccc(-c2ccccc2)cc1 [1-Biphenyl-4-yl-2-[1,2,4]triazol-1-yl-ethanone] | 7 ± 4 µM | 0.74 ± 0.05 µM | 
CC(C)c1ccc(CCC(=O)Cn2ccnc2)cc1 [1-Imidazol-1-yl-4-(4-isopropyl-phenyl)-butan-2-one hydrochloride] | 0.9 ± 0.2 µM | 0.163 ± 0.009 µM | 
Cc1ccc(CCC(=O)Cn2ccnc2)cc1 [1-Imidazol-1-yl-4-(4-methylphenyl)butan-2-one hydrochloride] | 3.7 ± 0.1 µM | 0.76 ± 0.01 µM | 
O=C(Cn1cncn1)c1ccc2ccccc2c1 [1-Naphthalen-2-yl-2-[1,2,4]triazol-1-yl-ethanone hydrochloride] | 42 ± 10 µM | 0.7 ± 0.1 µM | 
c1ccc(CCn2ccnc2)cc1 [1-Phenethyl-1H-imidazole] | > 100 µM | 72 ± 11 µM | 
c1ccc(-n2ccnc2)cc1 [1-Phenyl-1H-imidazole hydrochloride] | > 100 µM | > 100 µM | 
Clc1ccc(C2(Cn3ccnc3)OCCO2)c(Cl)c1 [1-[2-(2,4-dichloro-phenyl)-[1,3]dioxolan-2-ylmethyl]-1H-imidazole hydrochloride] | > 100 µM | 29 ± 14 µM | 
Clc1ccc(C2(Cn3ccnc3)OCCO2)cc1Cl [1-[2-(3,4-dichloro-phenyl)-[1,3]dioxolan-2-ylmethyl]-1H-imidazole] | > 100 µM | 8 ± 2 µM | 
Brc1cccc(C2(Cn3ccnc3)OCCO2)c1 [1-[2-(3-bromo-phenyl)-[1,3]dioxolan-2-ylmethyl]-1H-imidazole hydrochloride] | > 100 µM | 4 ± 0.7 µM | 
c1ccc(Cc2ccc(C3(Cn4ccnc4)OCCO3)cc2)cc1 [1-[2-(4-benzyl-phenyl)-[1,3]dioxolan-2-ylmethyl]-1H-imidazole hydrochloride] | > 100 µM | 4.98 ± 0.08 µM | 
Brc1ccc(C2(Cn3ccnc3)OCCO2)cc1 [1-[2-(4-bromo-phenyl)-[1,3]dioxolan-2-ylmethyl]-1H-imidazole hydrochloride] | > 100 µM | 12 ± 2 µM | 
Clc1ccc(C2(Cn3cncn3)OCCO2)cc1 [1-[2-(4-chloro-phenyl)-[1,3]dioxolan-2-ylmethyl]-1H-[1,2,4]triazole] | > 100 µM | 68.7 ± 0.6 µM | 
